Source: the supplement of paper PMC13380429

Experiments:
Conditions in all cases: 72 h
[1] = tested on: Calu-3; experiment: cell viability relative to DMSO; higher = less toxic
[2] = tested on: U2OS; experiment: as above
[3] = tested on: Caco-2; experiment: as above
[4] = tested on: HepG2; experiment: as above
[5] = tested on: Vero E6; experiment: as above
[6] = tested on: Calu-3; experiment: relative viability EC50 (midpoint between 100% and the lowest measured viability); higher = less toxic
[7] = tested on: U2OS; experiment: as above
[8] = tested on: Caco-2; experiment: as above
[9] = tested on: HepG2; experiment: as above
[10] = tested on: Vero E6; experiment: as above
[11] = tested on: Calu-3; experiment: drug sensitivity score (DSS) for viability; higher = more toxic; extreme values may be limits of the assay
[12] = tested on: U2OS; experiment: as above
[13] = tested on: Caco-2; experiment: as above
[14] = tested on: HepG2; experiment: as above
[15] = tested on: Vero E6; experiment: as above

SMILES	cell viability ([1]; 1 nM) [%]	cell viability ([1]; 10 nM) [%]	cell viability ([1]; 100 nM) [%]	cell viability ([1]; 1000 nM) [%]	cell viability ([1]; 10000 nM) [%]	cell viability ([2]; 1 nM) [%]	cell viability ([2]; 10 nM) [%]	cell viability ([2]; 100 nM) [%]	cell viability ([2]; 1000 nM) [%]	cell viability ([2]; 10000 nM) [%]	cell viability ([3]; 1 nM) [%]	cell viability ([3]; 10 nM) [%]	cell viability ([3]; 100 nM) [%]	cell viability ([3]; 1000 nM) [%]	cell viability ([3]; 10000 nM) [%]	cell viability ([4]; 1 nM) [%]	cell viability ([4]; 10 nM) [%]	cell viability ([4]; 100 nM) [%]	cell viability ([4]; 1000 nM) [%]	cell viability ([4]; 10000 nM) [%]	cell viability ([5]; 1 nM) [%]	cell viability ([5]; 10 nM) [%]	cell viability ([5]; 100 nM) [%]	cell viability ([5]; 1000 nM) [%]	cell viability ([5]; 10000 nM) [%]	relative viability EC50 [6] [µM]	relative viability EC50 [7] [µM]	relative viability EC50 [8] [µM]	relative viability EC50 [9] [µM]	relative viability EC50 [10] [µM]	drug sensitivity score [11]	drug sensitivity score [12]	drug sensitivity score [13]	drug sensitivity score [14]	drug sensitivity score [15]
CC[C@@H]1C(=O)OC[C@@H]1Cc1cncn1C [pilocarpine]	109	102	103	98.4	97.9	106	101	101	99.2	100	100	98.1	88.7	91.3	103	97.7	95.3	105	104	105	106	104	99.3	106	103	> 10	> 10	> 10	> 10	> 10	0	0	0	0	0
COc1cc2nc(N3CCN(C(=O)c4ccco4)CC3)nc(N)c2cc1OC [prazosin]	105	102	103	97.4	99.1	98.2	97.8	99.5	102	101	94.4	91.2	98.4	96	92.5	89.9	93.5	86.2	91.9	97.6	102	105	101	99.3	118	> 10	> 10	> 10	> 10	> 10	0	0	0	0	0
CCN(CC)CCOC(=O)c1ccc(N)cc1 [procaine]	100	93.3	92	97	98.3	100	95.2	97.9	94.2	102	92.8	92.7	96.6	97	97.3	108	94.9	100	97.7	98.9	104	99.4	99.3	103	98.5	> 10	> 10	> 10	> 10	> 10	0	0	0	0	0
CNC(=O)Oc1ccccc1OC(C)C [propoxur]	102	97.1	86.2	94.4	104	101	97.7	95.7	94.9	98.2	99.6	84.6	104	88.1	101	105	93.3	87.5	93.8	99.7	95	106	102	88.2	85.4	> 10	> 10	> 10	> 10	> 10	0	0	0	0	1
C[C@@H](O)[C@H](N)C(=O)N1CCC[C@H]1C(=O)N1CCC[C@H]1C(=O)N[C@H](C(N)=O)[C@@H](C)O [rapastinel]	95.3	101	91.4	96.8	106	95.7	94.4	98.8	95.6	97.3	100	88	97.6	97.1	92.6	100	110	91.9	104	97.6	97.6	99.5	95	102	114	> 10	> 10	> 10	> 10	> 10	0	0	0	0	0
CC(Cc1ccccc1)(NC(=O)CN)c1ccccc1 (stereo not given) [remacemide]	102	93.6	92.5	98.6	90.8	98.6	94.7	99.6	93.6	94	99.6	92.8	100	91.5	102	99.4	96.1	100	94.3	104	99.7	101	102	96.2	99.3	> 10	> 10	> 10	> 10	> 10	0	0	0	0	0
CC(NCCc1ccc(O)cc1)C(O)c1ccc(O)cc1 (stereo not given) [ritodrine]	102	105	93.7	98.3	101	96.9	102	97	101	105	91.4	97.7	95.5	99.7	105	94.5	102	91.4	95.8	103	86.5	93.6	102	98.9	109	> 10	> 10	> 10	> 10	> 10	0	0	0	0	0
CCN(C)C(=O)Oc1cccc([C@H](C)N(C)C)c1 [rivastigmine]	93.5	95	101	98.3	94.4	95.8	99.2	99.9	98.7	103	109	95.5	104	96.7	95.8	113	102	98	106	98.2	101	106	103	106	97.6	> 10	> 10	> 10	> 10	> 10	0	0	0	0	0
CNCC(=O)O [sarcosine]	92.9	98.5	96.7	89.6	97.7	96.1	99.2	99.1	96	107	93.3	93.4	95.5	102	110	112	110	88.4	106	107	93.4	97.8	90.4	103	112	> 10	> 10	> 10	> 10	> 10	0	0	0	0	0
NC(=O)C(c1ccccc1)(c1ccc(F)cc1)c1ccc(F)cc1 [senicapoc]	99	96.7	99	102	92.3	102	96.9	104	98.8	98.8	101	105	102	92.4	99.4	93.4	98.8	96.4	95.5	97.7	96.9	99.1	94.5	97.3	92.9	> 10	> 10	> 10	> 10	> 10	0	0	0	0	0
N[C@@H](CC(=O)N1CCn2c(nnc2C(F)(F)F)C1)Cc1cc(F)c(F)cc1F [sitagliptin]	107	100	99.5	106	97.7	97.5	94.6	97.4	94.8	97.7	108	99.5	97.1	102	84.1	89.2	98.9	91.1	97.5	88.6	97.7	106	90.7	107	102	> 10	> 10	> 10	> 10	> 10	0	0	0.2	0	0
NCCCNCCCCNCCCN [spermine]	99.2	101	81.9	99.2	104	96.5	96.3	96.1	96.8	103	90.2	124	93.5	98	96.7	93.6	98.4	104	93.1	94.3	95.3	94.1	95.8	98.6	106	> 10	> 10	> 10	> 10	> 10	0	0	0	0	0
Nc1ccc(S(=O)(=O)Nc2ccnn2-c2ccccc2)cc1 [sulfaphenazole]	97.2	100	101	104	97.2	97.4	97.8	100	99.4	101	97.5	100	102	96.1	94	102	99.5	85.5	112	103	93.1	102	88.4	99.5	108	> 10	> 10	> 10	> 10	> 10	0	0	0	0	0
NC(=O)N1C(=O)/C(=C(\O)c2cccs2)c2cc(Cl)ccc21 [tenidap]	109	97	85.4	108	99.9	99.6	98.3	93.3	102	99	98.3	94.6	97.1	94	91.6	98.4	110	98.8	106	99.9	102	103	94.6	93.1	99	> 10	> 10	> 10	> 10	> 10	0	0	0	0	0
O=C(O)C1CSCN1 (stereo not given) [timonacic]	115	94.9	94.6	109	104	103	98.2	99.5	98.8	102	101	102	96.4	88.3	102	94.4	98.7	88.1	98.4	97.9	97	99.6	97.6	98.9	94.1	> 10	> 10	> 10	> 10	> 10	0	0	0	0	0
